Tests used:
[1] = in vivo; cited from earlier work

## Cc1cc(-c2nnn3c2nc(N2CCN(c4ccccn4)C(=O)C2)c2ccccc23)no1
other
  melting point: 266 °C (dec.)

## Cc1cc(-c2nnn3c2nc(N2CCN(c4cccnc4)C(=O)C2)c2ccccc23)no1
other
  melting point: 247 °C (dec.)

## Cc1cc(-c2nnn3c2nc(N2CCN(c4ccccc4)C(=O)C2)c2ccccc23)no1
other
  melting point: 263 °C (dec.)

## COC(=O)c1cc2c(cn1)[nH]c1ccccc12 [β-CCM]
[1]
  spatial learning in the Morris watermaze: enhanced spatial learning
